Experimental data: patent US20030144255A1, “Compositions for prevention and treatment of dementia” (priority 2002, published 2003)

What was measured:
aged rats [1] = assay: Morris water maze learning test in aged rats; assay type: in vivo, rat; details: aged male rats of transgenic strain, test started on day 20 of treatment, vs control group
Procedure: (§1) Male (3 to 27 months old) rats of transgenic strain were used. The aged rats were divided into the following four groups.
(§2) 1) Control group: Repeated administration of placebo pill.
(§3) 2) 4,4′-diaminodiphenylsulphone group: Repeated oral administration of 4,4 -diaminodiphenylsulphone 1 mg/kg.
(§4) 3) Cholinesterase inhibitor group: Repeated oral administration of donepezil 0.3 mg/kg.
(§5) 4) Combination group: Repeated oral administration of 4,4′-diaminodiphenylsulphone 3 mg/kg and donepezil 0.3 mg/kg.
(§6) In the combination group, 4,4′-diaminodiphenylsulphone was administered 30 minutes after administration of donepezil.
(§7) Passive avoidance learning test was started on day 14 of treatment, and Morris water maze learning test on day 20 of treatment.
(§8) On each day of experiment, 4,4′-diaminodiphenylsulphone and a cholinesterase inhibitor were administered 30 minutes and 1 hour, respectively, before initiation of the trial.
Same animals used in the passive avoidance test were subjected for the water maze task. However, some rats can not swim well in the water tank, thus they were excluded in the water maze task. The water maze learning test was performed on young rats (saline, 10 animals) and aged rats (control group, 9 animals; 4,4′-diaminodiphenylsulphone group, 9 animals; Compound B group, 8 animals; combination group, 8 animals). […]

aged rats [2] = assay: Passive avoidance learning test in aged rats; assay type: in vivo, rat; details: aged male rats of transgenic strain, test started on day 14 of treatment, vs control group
Procedure: as §1, §2, §3, §4, §5, §6, §7, §8
The passive avoidance learning test was performed using a chamber consisting of light and dark compartments. […]
In each trial, the latency from opening of the slide door until the animal moved to the dark compartment (step-through latency) was measured.

Structure (SMILES)	water maze learning deficit (latency to find platform submerged in the water) (aged rats [1]; repeated oral 1 mg/kg)	passive avoidance learning deficit (step-through latency / avoidance time) (aged rats [2]; repeated oral 1 mg/kg)	water maze learning deficit (latency to find platform submerged in the water) (aged rats [1]; repeated oral 0.3 mg/kg)	passive avoidance learning deficit (step-through latency / avoidance time) (aged rats [2]; repeated oral 0.3 mg/kg)
Nc1ccc(S(=O)(=O)c2ccc(N)cc2)cc1 [4,4′-diaminodiphenylsulphone]	significant improvement in water maze learning deficit	significant improvement of the learning deficit		
COc1cc2c(cc1OC)C(=O)C(CC1CCN(Cc3ccccc3)CC1)C2.Cl (stereo not shown) [donepezil, 2,3-dihydro-5,6-dimethoxy-2-[[1-(phenylmethyl)-4-piperidinyl]methyl]-1H-inden-1-one hydrochloride]			significant improvement in water maze learning deficit	significant improvement of the learning deficit
